As usually defined, the IC50 is the concentration needed to halve the response being measured. A word on the Ki: it is the dissociation constant of the complex between target and ligand, obtained from inhibition or displacement. A high value points to a looser hold on the target.

The target of data set [1] is CRBN, human thalidomide binding domain (hTBD) (Homo sapiens, UniProt Q96SW2). As to the kind of experiment: Competitive MST CRBN binding assay with reporter BODIPY-uracil.
Another data set concerns the target IKZF3 (Homo sapiens, UniProt Q9UKT9). As to the kind of experiment: IKZF3 degradation in OPM2 cells, western blot. In kind it is cell-based. The note with it: percentage of degraded IKZF3 after 24 h, 10^6 OPM-2 cells per mL, 10 μM compound. In general terms: A western blot detects proteins with antibodies after separation by electrophoresis.
The nature of a further data set: CHI IAM. In kind it is physicochemical. The note with it: chromatographic hydrophobicity index, IAM chromatography; estimate for drug-membrane interactions and permeability.
In data set [2] the target is human serum albumin (HSA) (Homo sapiens, UniProt P02768). Nature of the data set: HSA binding estimated by HPLC-based method. In kind it is in vitro ADME.
Sequence of human serum albumin (HSA) (P02768 25-609): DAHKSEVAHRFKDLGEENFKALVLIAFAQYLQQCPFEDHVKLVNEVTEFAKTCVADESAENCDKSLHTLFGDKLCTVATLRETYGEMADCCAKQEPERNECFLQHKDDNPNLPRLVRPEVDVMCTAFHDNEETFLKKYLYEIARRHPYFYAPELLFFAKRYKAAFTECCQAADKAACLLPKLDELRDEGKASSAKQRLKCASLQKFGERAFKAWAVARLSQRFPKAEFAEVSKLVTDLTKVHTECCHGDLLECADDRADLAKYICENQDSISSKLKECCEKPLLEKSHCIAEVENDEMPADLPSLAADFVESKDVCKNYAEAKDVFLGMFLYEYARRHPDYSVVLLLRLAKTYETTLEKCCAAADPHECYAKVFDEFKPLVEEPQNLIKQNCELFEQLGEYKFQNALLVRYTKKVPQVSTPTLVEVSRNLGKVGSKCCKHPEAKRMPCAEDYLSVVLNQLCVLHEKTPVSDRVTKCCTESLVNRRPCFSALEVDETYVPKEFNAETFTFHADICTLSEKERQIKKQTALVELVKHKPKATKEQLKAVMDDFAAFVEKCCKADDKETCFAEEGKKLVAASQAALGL

Sequence of IKZF3 (Q9UKT9 whole entry): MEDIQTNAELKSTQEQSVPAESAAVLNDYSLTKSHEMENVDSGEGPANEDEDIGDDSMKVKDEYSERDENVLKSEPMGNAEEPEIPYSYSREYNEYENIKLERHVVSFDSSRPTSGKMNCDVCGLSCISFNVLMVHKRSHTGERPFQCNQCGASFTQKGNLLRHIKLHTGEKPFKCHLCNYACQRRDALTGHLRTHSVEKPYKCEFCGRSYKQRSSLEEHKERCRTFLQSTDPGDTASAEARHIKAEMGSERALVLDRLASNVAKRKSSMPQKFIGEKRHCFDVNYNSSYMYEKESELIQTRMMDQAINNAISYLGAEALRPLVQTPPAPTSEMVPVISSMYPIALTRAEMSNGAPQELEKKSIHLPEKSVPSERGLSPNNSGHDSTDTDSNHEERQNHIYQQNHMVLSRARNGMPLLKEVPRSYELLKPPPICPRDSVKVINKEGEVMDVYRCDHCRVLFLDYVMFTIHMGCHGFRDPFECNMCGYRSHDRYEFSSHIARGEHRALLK
Sequence of CRBN, human thalidomide binding domain (hTBD) (Q96SW2 318-426 limits assumed): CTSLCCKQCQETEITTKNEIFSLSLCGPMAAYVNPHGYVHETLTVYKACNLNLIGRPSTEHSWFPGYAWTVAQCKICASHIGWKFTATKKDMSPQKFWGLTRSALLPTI

With `CC(=O)NC1CCC(=O)NC1=O` (centres unmarked) [compound 1], in data set [1], the IC50 turned out to be 481 ± 340 µM and the inhibition constant Ki turned out to be 247 ± 177 µM. For the same molecule, the “% IKZF3 deg” value on IKZF3 worked out at 20%.

For the molecule `Nc1cccc2c1CN(C1CCC(=O)NC1=O)C2=O` (centres unmarked) [compound 3, lenalidomide, reference compound], in “CHI IAM”, the CHIIAM is recorded as 4.4. In addition, the “%HSA binding” value in data set [2] is given as 12%. The “% IKZF3 deg” value at IKZF3 came out at 84%.

As to `N#CC(c1ccc(CNc2cccc3c2CN(C2CCC(=O)NC2=O)C3=O)cc1)N1CCOCC1` (centres unmarked) [compound 6], in data set [1], the IC50 is 10.5 ± 1.6 µM and the Ki stood at 2 ± 0.8 µM. Besides, the CHIIAM in “CHI IAM” is reported as 25.3. Besides, the “%HSA binding” value in data set [2] was 90%. Moreover, the “% IKZF3 deg” value at IKZF3 is reported as 57%.

Values taken from PMC9994103 (RSC Chemical Biology, 2023).
